Measurements from PubChem BioAssay AID330 (DTP/NCI, 2004).
“And” between values parts separate entries of the source, which are not always exact repeats. Equal values may be shown once. Inconclusive results and toxic doses are left out. How the source made its calls: active means survival T/C of 150% or more; inactive means T/C below 125% in these data.

System: P388 leukemia ip, CD2F1 mice, survival T/C
Experiment: NCI In Vivo Anticancer Drug Screen. Data for tumor model P388 Leukemia (intraperitoneal) in CD2F1 (CDF1) mice
Conditions: endpoint: median survival time, higher = longer survival
Outline: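 Mice carrying the transplanted tumor received test compound or vehicle. Survival was recorded in each group, and the value is the treated-group measurement divided by that of the vehicle-treated control group.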

[1] = dose: 25.0 mg/kg/injection, schedule: Q01DX009 (ip), vehicle: saline
[2] = dose: 50.0 mg/kg/injection, schedule: Q01DX009 (ip), vehicle: Klucel (hydroxypropylcellulose) (HPC)
[3] = dose: 50.0 mg/kg/injection, schedule: Q01DX009 (ip), vehicle: saline
[4] = dose: 100.0 mg/kg/injection, schedule: Q01DX009 (ip), vehicle: Klucel (hydroxypropylcellulose) (HPC)
[5] = dose: 100.0 mg/kg/injection, schedule: Q01DX009 (ip), vehicle: saline
[6] = dose: 200.0 mg/kg/injection, schedule: Q01DX009 (ip), vehicle: Klucel (hydroxypropylcellulose) (HPC)
[7] = dose: 50.0 mg/kg/injection, schedule: Q01DX009 (ip), vehicle: saline with Tween-80
[8] = dose: 100.0 mg/kg/injection, schedule: Q01DX009 (ip), vehicle: saline with Tween-80
[9] = dose: 200.0 mg/kg/injection, schedule: Q01DX009 (ip), vehicle: saline with Tween-80
[10] = dose: 50.0 mg/kg/injection, schedule: Q01DX005 (ip), vehicle: saline with Tween-80
[11] = dose: 100.0 mg/kg/injection, schedule: Q01DX005 (ip), vehicle: saline with Tween-80
[12] = dose: 50.0 mg/kg/injection, schedule: Q01DX005 (ip), vehicle: Klucel (hydroxypropylcellulose) (HPC)
[13] = dose: 100.0 mg/kg/injection, schedule: Q01DX005 (ip), vehicle: Klucel (hydroxypropylcellulose) (HPC)
[14] = dose: 200.0 mg/kg/injection, schedule: Q01DX005 (ip), vehicle: Klucel (hydroxypropylcellulose) (HPC)
[15] = dose: 200.0 mg/kg/injection, schedule: Q01DX005 (ip), vehicle: saline with Tween-80
[16] = dose: 100.0 mg/kg/injection, schedule: Q01DX001 (ip), vehicle: saline with Tween-80
[17] = dose: 400.0 mg/kg/injection, schedule: Q01DX001 (ip), vehicle: saline with Tween-80
[18] = dose: 60.0 mg/kg/injection, schedule: Q01DX005 (ip), vehicle: Klucel (hydroxypropylcellulose) (HPC)
[19] = dose: 120.0 mg/kg/injection, schedule: Q01DX005 (ip), vehicle: Klucel (hydroxypropylcellulose) (HPC)

Measured: T/C

CNC(=O)Nc1ccc[nH]c1=O
inactive: dose: 25.0 mg/kg/injection, schedule: Q01DX009 (ip), vehicle: Klucel (hydroxypropylcellulose) (HPC) 103 % of control and 95 % of control | [1] 101 % of control | [2] 90 % of control and 91 % of control | [3] 99 % of control and 97 % of control | [4] 105 % of control and 96 % of control | [5] 100 % of control and 108 % of control | [6] 101 % of control and 87 % of control | dose: 200.0 mg/kg/injection, schedule: Q01DX009 (ip), vehicle: saline 99 % of control | dose: 400.0 mg/kg/injection, schedule: Q01DX009 (ip), vehicle: Klucel (hydroxypropylcellulose) (HPC) 109 % of control and 96 % of control | dose: 400.0 mg/kg/injection, schedule: Q01DX009 (ip), vehicle: saline 102 % of control and 109 % of control

COc1cccc(/C=N/NC(=O)N/N=C/c2cccc(OC)c2O)c1O
inactive: [7] 92 % of control | [8] 100 % of control | [9] 101 % of control | dose: 400.0 mg/kg/injection, schedule: Q01DX009 (ip), vehicle: saline with Tween-80 95 % of control

CCOC(=O)C1=C(C)NC(C)=C(C(=O)OCC)C1c1ccccc1Cl
inactive: dose: 12.5 mg/kg/injection, schedule: Q01DX009 (ip), vehicle: saline 100 % of control | [1] 110 % of control | [3] 120 % of control

C[Si]1(C)CC[Si](C)(C)S1
inactive: [10] 103 % of control | [11] 108 % of control

[CH3][Ge]([CH3])[c]1ccccc1
inactive: [3] 101 % of control | [5] 95 % of control

Cc1nn(-c2ccccc2)c2c1c(=O)c1ccccc1c(=O)n2C
inactive: [12] 105 % of control | [13] 104 % of control | [14] 94 % of control

COC(=O)/C=C/c1cccn1C(=O)c1c(Cl)cccc1Cl
inactive: [10] 97 % of control | [11] 98 % of control | [15] 87 % of control

COc1cc(/C=C/C2=C(C)C(=O)CC(c3cc(OC)c(OC)c(OC)c3)C2C)cc(OC)c1OC (centres undefined)
inactive: dose: 12.5 mg/kg/injection, schedule: Q04DX003 (ip), vehicle: Klucel (hydroxypropylcellulose) (HPC) 100 % of control | dose: 25.0 mg/kg/injection, schedule: Q04DX003 (ip), vehicle: Klucel (hydroxypropylcellulose) (HPC) 101 % of control | dose: 50.0 mg/kg/injection, schedule: Q04DX003 (ip), vehicle: Klucel (hydroxypropylcellulose) (HPC) 97 % of control

O=C(O)c1cccc(Cl)c1 (tested in a mixture with another compound)
inactive: [16] 94 % of control | dose: 200.0 mg/kg/injection, schedule: Q01DX001 (ip), vehicle: saline with Tween-80 99 % of control | [17] 95 % of control

c1ccc(C2Nc3ccccc3CO2)cc1 (centres undefined)
inactive: [18] 101 % of control | [19] 99 % of control | dose: 240.0 mg/kg/injection, schedule: Q01DX005 (ip), vehicle: Klucel (hydroxypropylcellulose) (HPC) 99 % of control

O=C(O)CNC(=O)OCC1c2ccccc2-c2ccccc21
inactive: [12] 100 % of control | [13] 95 % of control | [14] 100 % of control

CCOC(=O)c1nnc(-c2ccccc2)nc1Cl
inactive: [18] 103 % of control | [19] 100 % of control

OC1COC(c2ccccc2)OC1C1OC(c2ccccc2)OC2COC(c3ccccc3)OC21 (centres undefined)
inactive: [7] 107 % of control | [8] 96 % of control | [9] 97 % of control

CN(C)C(=O)c1cccc(COc2ccc(N3C(N)=NC(N)=NC3(C)C)cc2Cl)c1
inactive: dose: 4.0 mg/kg/injection, schedule: Q01DX001 (ip), vehicle: saline 96 % of control | dose: 8.0 mg/kg/injection, schedule: Q01DX001 (ip), vehicle: saline 99 % of control | dose: 8.0 mg/kg/injection, schedule: Q01DX009 (ip), vehicle: saline 107 % of control | dose: 16.0 mg/kg/injection, schedule: Q01DX001 (ip), vehicle: saline 95 % of control | dose: 16.0 mg/kg/injection, schedule: Q01DX009 (ip), vehicle: saline 100 % of control | dose: 16.0 mg/kg/injection, schedule: Q08DX002 (ip), vehicle: saline 100 % of control | dose: 32.0 mg/kg/injection, schedule: Q01DX001 (ip), vehicle: saline 93 % of control | dose: 32.0 mg/kg/injection, schedule: Q01DX009 (ip), vehicle: saline 111 % of control | dose: 32.0 mg/kg/injection, schedule: Q08DX002 (ip), vehicle: saline 110 % of control | dose: 64.0 mg/kg/injection, schedule: Q01DX001 (ip), vehicle: saline 96 % of control

Cn1nc(-c2ccc(S(=O)(=O)F)cc2)s/c1=N/NC(=O)c1ccccc1
inactive: dose: 60.0 mg/kg/injection, schedule: Q01DX005 (ip), vehicle: Klucel + Tween-80 87 % of control | dose: 120.0 mg/kg/injection, schedule: Q01DX005 (ip), vehicle: Klucel + Tween-80 92 % of control

CCCCCCCCCCCC(=O)CCCC
inactive: dose: 100.0 mg/kg/injection, schedule: Q04DX003 (ip), vehicle: other 104 % of control | dose: 200.0 mg/kg/injection, schedule: Q04DX003 (ip), vehicle: other 113 % of control | dose: 400.0 mg/kg/injection, schedule: Q04DX003 (ip), vehicle: other 118 % of control

CC1=NOC(=O)/C1=C/c1ccccc1C
inactive: [10] 104 % of control | [11] 104 % of control

CCOC(=O)c1c(C#N)c2ccccc2n1O
inactive: dose: 25.0 mg/kg/injection, schedule: Q01DX001 (ip), vehicle: distilled water + Tween-80 110 % of control | dose: 50.0 mg/kg/injection, schedule: Q01DX001 (ip), vehicle: distilled water + Tween-80 106 % of control | dose: 100.0 mg/kg/injection, schedule: Q01DX001 (ip), vehicle: distilled water + Tween-80 110 % of control | [16] 97 % of control | [17] 99 % of control

Cc1ccc(S(=O)(=O)N/N=C/c2c(Cl)nc3n2CCS3)cc1
inactive: dose: 100.0 mg/kg/injection, schedule: Q01DX001 (ip), vehicle: Klucel (hydroxypropylcellulose) (HPC) 101 % of control | dose: 200.0 mg/kg/injection, schedule: Q01DX001 (ip), vehicle: Klucel (hydroxypropylcellulose) (HPC) 94 % of control | dose: 400.0 mg/kg/injection, schedule: Q01DX001 (ip), vehicle: Klucel (hydroxypropylcellulose) (HPC) 94 % of control

COc1cc(C2Oc3c(OC)cc(CC4C(=O)OCC4Cc4ccc(OC)c(OC)c4)cc3C2CO)ccc1O (centres undefined)
inactive: dose: 2.5 mg/kg/injection, schedule: Q01DX009 (ip), vehicle: saline with Tween-80 104 % of control | dose: 5.0 mg/kg/injection, schedule: Q01DX009 (ip), vehicle: saline with Tween-80 102 % of control | dose: 10.0 mg/kg/injection, schedule: Q01DX009 (ip), vehicle: saline with Tween-80 101 % of control | dose: 20.0 mg/kg/injection, schedule: Q01DX009 (ip), vehicle: saline with Tween-80 101 % of control

CCCCC1(Cc2ccccc2)SC(=O)NC1=O (centres undefined)
inactive: [10] 98 % of control | [11] 100 % of control | [15] 91 % of control

CC(=O)[C-](C)C(C)=O.CC(=O)[C-](C)C(C)=O.CC(=O)[C-](C)C(C)=O.[Ru+3]
inactive: [10] 100 % of control | [11] 113 % of control | [15] 90 % of control

c1ccc2c(c1)OC1OC2Oc2ccccc21
inactive: dose: 60.0 mg/kg/injection, schedule: Q01DX005 (ip), vehicle: saline with Tween-80 100 % of control | dose: 120.0 mg/kg/injection, schedule: Q01DX005 (ip), vehicle: saline with Tween-80 100 % of control | dose: 240.0 mg/kg/injection, schedule: Q01DX005 (ip), vehicle: saline with Tween-80 101 % of control

CCCCOP(=O)(NNP(=O)(OCCCC)OCCCC)OCCCC
inactive: dose: 25.0 mg/kg/injection, schedule: Q01DX009 (ip), vehicle: saline with Tween-80 102 % of control | [7] 102 % of control | [8] 100 % of control | [9] 101 % of control

Nc1nc(N)c2nc(C(=O)c3ccccc3)c(-c3ccccc3)nc2n1
inactive: [7] 92 % of control | [8] 97 % of control | [9] 90 % of control

CSc1ccc(NC(=O)Oc2ccccc2I)cc1
inactive: [2] 104 % of control | [4] 104 % of control | [6] 109 % of control

CCn1c(Cl)c(/C=N\Nc2ccccc2[N+](=O)[O-])c2ccccc21
inactive: dose: 12.5 mg/kg/injection, schedule: Q01DX001 (ip), vehicle: Klucel (hydroxypropylcellulose) (HPC) 94 % of control | dose: 25.0 mg/kg/injection, schedule: Q01DX001 (ip), vehicle: Klucel (hydroxypropylcellulose) (HPC) 88 % of control
